Molecules are shown by their SMILES.

T1 sequence (Q06187 whole entry): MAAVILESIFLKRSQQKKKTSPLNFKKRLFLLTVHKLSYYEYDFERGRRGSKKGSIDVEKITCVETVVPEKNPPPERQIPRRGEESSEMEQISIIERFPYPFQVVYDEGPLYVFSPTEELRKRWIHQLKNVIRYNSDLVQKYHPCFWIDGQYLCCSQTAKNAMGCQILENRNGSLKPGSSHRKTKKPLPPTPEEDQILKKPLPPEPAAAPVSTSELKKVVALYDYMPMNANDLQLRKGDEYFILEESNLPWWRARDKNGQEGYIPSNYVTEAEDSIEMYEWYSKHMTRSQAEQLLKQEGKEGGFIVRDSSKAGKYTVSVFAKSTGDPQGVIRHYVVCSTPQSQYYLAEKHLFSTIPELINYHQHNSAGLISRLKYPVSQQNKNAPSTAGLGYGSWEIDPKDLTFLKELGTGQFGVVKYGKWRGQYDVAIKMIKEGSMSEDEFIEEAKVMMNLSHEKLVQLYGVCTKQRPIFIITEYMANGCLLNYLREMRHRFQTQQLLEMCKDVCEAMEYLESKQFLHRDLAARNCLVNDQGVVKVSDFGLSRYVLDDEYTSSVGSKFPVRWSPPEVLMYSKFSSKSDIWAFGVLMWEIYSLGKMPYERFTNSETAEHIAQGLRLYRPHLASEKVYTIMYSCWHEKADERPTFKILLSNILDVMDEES

The experiment concerns the target T1, BTK (Homo sapiens, UniProt Q06187).
T1 construct: endogenous in cells; host or cells: Mino cells
Briefly: BTK degradation activity test in Mino cells. The experiment is classed as cell-based. The conditions noted are these: 16 h incubation, Western blot or Elisa. Here is the method: Mino cell line cells were seeded at 500,000 to 1,000,000 cells/well in a 6-well plate. The compounds were diluted to different concentrations and added to the plate, and after 16 h of incubation, cells were harvested. After lysing the cells, the total protein concentration in each well was determined using the BCA method. The amount of BTK was determined using Western blot or Elisa method. The amount of undegraded BTK protein at each drug concentration was compared with the amount of BTK protein in the blank control group to calculate the degradation rate. The degradation curve was drawn based on the degradation rate at each concentration, and the half degradation concentration (DC50) was calculated by fitting.
(In general: In western blotting, separated proteins are transferred to a membrane and probed.)
On to `NC(=O)c1nnc(N2CCCC(N3CCN(c4cccnc4)C3=O)C2)nc1Nc1ccc(C2CCN(CC3CCN(c4ccc5c(c4)C(=O)N(C4CCC(=O)NC4=O)C5=O)CC3)CC2)cc1` (stereo not drawn) [Compound 067, 5-((4-(1-((1-(2-(2,6-dioxopiperidin-3-yl)-1,3-dioxoisoindol-5-yl)piperidin-4-yl)methyl)piperidin-4-yl)phenyl)amino)-3-(3-(2-oxo-3-(pyridin-3-yl)imidazolin-1-yl)piperidin-1-yl)-1,2,4-triazin-6-carboxamide], for which the DC50 was below 1 nM.
To `CN1CCN(C2CCCN(c3nnc(C(N)=O)c(Nc4ccc(C5CCN(CC6CCN(c7ccc8c(c7)C(=O)N(C7CCC(=O)NC7=O)C8)CC6)CC5)cc4)n3)C2)C1=O` (stereo not drawn) [Compound 086, 5-((4-(1-((1-(2-(2,6-dioxopiperidin-3-yl)-3-oxoisoindol-5-yl)piperidin-4-yl)methyl)piperidin-4-yl)phenyl)amino)-3-(3-(3-methyl-2-oxoimidazolin-1-yl)piperidin-1-yl)-1,2,4-triazin-6-carboxamide] belongs below 1 nM; to `CN1CCN([C@@H]2CCCN(c3nnc(C(N)=O)c(Nc4ccc(N5CCN(CC6CCN(c7ccnc8c(C(=O)NC9CCC(=O)NC9=O)cccc78)CC6)CC5)c(F)c4)n3)C2)C1=O` (stereo partly drawn) [Compound 250, 4-(4-((4-(4-((6-carbamoyl-3-((R)-3-(3-methyl-2-oxoimidazolidin-1-yl)piperidin-1-yl)-1,2,4-triazin-5-yl)amino)-2-fluorophenyl)piperazin-1-yl)methyl)piperidin-1-yl)-N-(2,6-dioxopiperidin-3-yl)quinolin-8-carboxamide], below 1 nM.
The figure for `CN1CCN([C@@H]2CCCN(c3nnc(C(N)=O)c(Nc4ccc(N5CCN(CC6CCN(c7ccc(NC8CCC(=O)NC8=O)cc7)CC6)CC5)c(F)c4)n3)C2)C1=O` (stereo partly drawn) [Compound 253, 5-((4-(4-((1-(4-((2,6-dioxopiperidin-3-yl)amino)phenyl)piperidin-4-yl)methyl)piperazin-1-yl)-3-fluorophenyl)amino)-3-((R)-3-(3-methyl-2-oxoimidazolidin-1-yl)piperidin-1-yl)-1,2,4-triazin-6-carboxamide] is below 1 nM; for `CN1CCN([C@@H]2CCCN(c3nnc(C(N)=O)c(Nc4ccc(N5CCN(CC#Cc6ccc(C(=O)NC7CCC(=O)NC7=O)s6)CC5)c(F)c4)n3)C2)C1=O` (stereo partly drawn) [Compound 230, 5-((4-(4-(3-(5-((2,6-dioxopiperidin-3-yl)carbamoyl)thiophen-2-yl)propan-2-yn-1-yl)piperazin-1-yl)-3-fluorophenyl)amino)-3-((R)-3-(3-methyl-2-oxoimidazolidin-1-yl)piperidin-1-yl)-1,2,4-triazin-6-carboxamide] it is below 1 nM; for `CN1CCN([C@@H]2CCCN(c3nnc(C(N)=O)c(Nc4ccc(N5CCN(CC6CCN(c7ccc8c9c(oc8c7)C(=O)N(C7CCC(=O)NC7=O)C9)C6)CC5)c(F)c4)n3)C2)C1=O` (stereo partly drawn) [Compound 221, 5-((4-(4-((1-(2-(2,6-dioxopiperidin-3-yl)-3-oxo-2,3-dihydro-H-benzofuro[2,3-c]pyrrol-6-yl)pyrrolidin-3-yl)methyl)piperazin-1-yl)-3-fluorophenyl)amino)-3-((R)-3-(3-methyl-2-oxoimidazolidin-1-yl)piperidin-1-yl)-1,2,4-triazin-6-carboxamide] it is below 1 nM.
Regarding `CN1CCN(C2CC3CC2N(c2nnc(C(N)=O)c(Nc4ccc(C5CCN(CC6CCN(c7ccc8c(c7)C(=O)N(C7CCC(=O)NC7=O)C8)CC6)CC5)cc4)n2)C3)C1=O` (stereo not drawn) [Compound 112, 5-((4-(1-((1-(2-(2,6-dioxopiperidin-3-yl)-3-oxoisoindol-5-yl)piperidin-4-yl)methyl)piperidin-4-yl)phenyl)amino)-3-(6-(3-methyl-2-oxoimidazolin-1-yl)-2-azabicyclo[2.2.1]heptan-2-yl)-1,2,4-triazin-6-carboxamide], the DC50 is below 1 nM.
The figure for `CN1CCN([C@@H]2CCCN(c3nnc(C(N)=O)c(Nc4ccc(N5CCN(CC6CCN(c7ccc8c(C9CCC(=O)NC9=O)noc8c7)CC6)CC5)c(F)c4)n3)C2)C1=O` (stereo partly drawn) [Compound 243, 5-((4-(4-((1-(3-(2,6-dioxopiperidin-3-yl)benzo[d]isoxazol-6-yl)piperidin-4-yl)methyl)piperazin-1-yl)-3-fluorophenyl)amino)-3-((R)-3-(3-methyl-2-oxoimidazolidin-1-yl)piperidin-1-yl)-1,2,4-triazin-6-carboxamide] is below 1 nM; for `CN1CCN([C@@H]2CCCN(c3nnc(C(N)=O)c(Nc4ccc(N5CCN(CC#Cc6ccc7c8c(cccc68)C(=O)N7C6CCC(=O)NC6=O)CC5)c(F)c4)n3)C2)C1=O` (stereo partly drawn) [Compound 248, 5-((4-(4-(3-(1-(2,6-dioxopiperidin-3-yl)-2-oxo-1,2-dihydrobenzo[cd]indol-6-yl)propan-2-yn-1-yl)piperazin-1-yl)-3-fluorophenyl)amino)-3-((R)-3-(3-methyl-2-oxoimidazolidin-1-yl)piperidin-1-yl)-1,2,4-triazin-6-carboxamide] it is below 1 nM.
To `CN1CCN(C2CC3CC2N(c2ccc(C(N)=O)c(Nc4ccc(C5CCN(C6CN(c7ccc8c(c7)C(=O)N(C7CCC(=O)NC7=O)C8=O)C6)CC5)cc4)n2)C3)C1=O` (stereo not drawn) [Compound 048, 2-((4-(1-(1-(2-(2,6-dioxopiperidin-3-yl)-1,3-dioxoisoindolin-5-yl)azetidin-3-yl)piperidin-4-yl)phenyl)amino)-6-(-6-(3-methyl-2-oxoimidazolin-1-yl)-2-azabicyclo[2.2.1]heptan-2-yl)nicotinamide] belongs below 1 nM.
To `CN1CCN(C2CC3CC2N(c2nnc(C(N)=O)c(Nc4ccc(C5CCN(CC6CCN(c7ccc8c(c7)C(=O)N(C7CCC(=O)NC7=O)C8=O)CC6)CC5)cc4)n2)C3)C1=O` (stereo not drawn) [Compound 071, 5-((4-(1-((1-(2-(2,6-dioxopiperidin-3-yl)-1,3-dioxoisoindol-5-yl)piperidin-4-yl)methyl)piperidin-4-yl)phenyl)amino)-3-(6-(3-methyl-2-oxoimidazolin-1-yl)-2-azabicyclo[2.2.1]heptan-2-yl)-1,2,4-triazin-6-carboxamide] belongs above 1 nM.
Compound `CN1CCN(C2CC3CC2N(c2nnc(C(N)=O)c(Nc4ccc(C5CCN(C6CCN(c7ccc8c(c7)C(=O)N(C7CCC(=O)NC7=O)C8=O)CC6)CC5)cc4)n2)C3)C1=O` (stereo not drawn) [Compound 109, 5-((4-(1′-(2-(2,6-dioxopiperidin-3-yl)-1,3-dioxoisoindol-5-yl)-[1,4′-bipiperidin]-4-yl)phenyl)amino)-3-(6-(3-methyl-2-oxoimidazolin-1-yl)-2-azabicyclo[2.2.1]heptan-2-yl)-1,2,4-triazin-6-carboxamide] yielded a DC50 below 1 nM.
The compound `Cc1cc(N2CCC(CN3CCC(c4ccc(Nc5c(F)c(N6CCC[C@@H](N7CCN(C)C7=O)C6)c(F)c(F)c5C(N)=O)cc4F)CC3)CC2)ccc1N1CCC(=O)NC1=O` [Compound 242, (R)-2-((4-(1-((1-(4-(2,4-dioxotetrahydropyrimidin-1(2H)-yl)-3-methylphenyl)piperidin-4-yl)methyl)piperidin-4-yl)-3-fluorophenyl)amino)-3,5,6-trifluoro-4-(3-(3-methyl-2-oxoimidazolidin-1-yl)piperidin-1-yl)benzamide] yielded a DC50 below 1 nM.
To `CN1CCN([C@@H]2CCCN(c3nnc(C(N)=O)c(Nc4ccc(N5CCN(CC6CCN(c7cc8c(cc7F)C(=O)N(C7CCC(=O)NC7=O)C8=O)C6)CC5)c(F)c4)n3)C2)C1=O` (stereo partly drawn) [Compound 169, 5-((4-(4-((1-(2-(2,6-dioxopiperidin-3-yl)-6-fluoro-1,3-dioxoisoindolin-5-yl)pyrrolidin-3-yl)methyl)piperazin-1-yl)-3-fluorophenyl)amino)-3-((R)-3-(3-methyl-2-oxoimidazolidin-1-yl)piperidin-1-yl)-1,2,4-triazin-6-carboxamide] belongs below 1 nM.
Regarding `NC(=O)c1ncc(N2CCCC(N3CCN(C4CCCC4)C3=O)C2)nc1Nc1ccc(C2CCN(CC3CCN(c4ccc5c(c4)C(=O)N(C4CCC(=O)NC4=O)C5=O)C3)CC2F)cc1` (stereo not drawn) [Compound 043, 5-(3-(3-cyclopentyl-2-oxoimidazolin-1-yl)piperidin-1-yl)-3-((4-(1-((1-(2-(2,6-dioxopiperidin-3-yl)-1,3-dioxoisoindolin-5-yl)pyrrolidin-3-yl)methyl)-3-fluoropiperidin-4-yl)phenyl)amino)pyrazin-2-carboxamide], the DC50 was above 1 nM.
The compound `NC(=O)c1nnc(N2CCCC(N3CCN(c4cccc(F)c4)C3=O)C2)nc1Nc1ccc(C2CCN(CC3CCN(c4ccc5c(c4)C(=O)N(C4CCC(=O)NC4=O)C5=O)CC3)CC2)cc1` (stereo not drawn) [Compound 066, 5-((4-(1-((1-(2-(2,6-dioxopiperidin-3-yl)-1,3-dioxoisoindol-5-yl)piperidin-4-yl)methyl)piperidin-4-yl)phenyl)amino)-3-(3-(3-(3-fluorophenyl)-2-oxoimidazolin-1-yl)piperidin-1-yl)-1,2,4-triazin-6-carboxamide] gave a DC50 below 1 nM.
Turning to `CN1CCN([C@@H]2CCCN(c3nnc(C(N)=O)c(Nc4ccc(N5CCN(CC6CCN(c7ccc(NC8CCC(=O)NC8=O)c8c7OCO8)C6)CC5)c(F)c4)n3)C2)C1=O` (stereo partly drawn) [Compound 208, 5-((4-(4-((1-(7-((2,6-dioxopiperidin-3-yl)amino)benzo[d][1,3]dioxacyclopent-4-yl)pyrrolidin-3-yl)methyl)piperazin-1-yl)-3-fluorophenyl)amino)-3-((R)-3-(3-methyl-2-oxoimidazolidin-1-yl)piperidin-1-yl)-1,2,4-triazin-6-carboxamide], the DC50 is below 1 nM.
Turning to `CN1CCN(C2CC3CC2N(c2nnc(C(N)=O)c(Nc4ccc(C5CCN(CC6CCN(c7ccc8c(c7)C(=O)N(C7CCC(=O)NC7=O)C8=O)C6)CC5)cc4)n2)C3)C1=O` (stereo not drawn) [Compound 102, 5-((4-(1-((1-(2-(2,6-dioxopiperidin-3-yl)-1,3-dioxoisoindol-5-yl)pyrrolidin-3-yl)methyl)piperidin-4-yl)phenyl)amino)-3-(6-(3-methyl-2-oxoimidazolin-1-yl)-2-azabicyclo[2.2.1]heptan-2-yl)-1,2,4-triazin-6-carboxamide], the DC50 was below 1 nM.

For orientation: DC50 means the concentration at which degradation of the target reaches its halfway point.

For the origin of these results see US20240360146A1, “BRUTON'S TYROSINE KINASE AND MUTANT DEGRADER, COMPOSITION AND APPLICATION THEREOF” (HANGZHOU HEALZEN THERAPEUTICS CO., LTD., priority 2021, published 2024).
